Source: patent publication US7557110B2, “Pyrazolo[1,5-A] pyrimidine derivatives” (Teijin Pharma Limited, priority 2003, dated 2009)
Where two headings read alike, the source gives them in different places.

Legend:
MAPKAP-K2 = MAPKAP-K2 (Homo sapiens, UniProt P49137); test: MAPKAP-K2 enzyme activity inhibition (33P-ATP filter plate kinase assay); type: biochemical; conditions: MAPKAP-K2 inhibitory activity; assays conducted at typically 1-100 μM; further: key: +: active; ++: more active; +++: very active
MAPKAP-K2, sequence (P49137 whole entry): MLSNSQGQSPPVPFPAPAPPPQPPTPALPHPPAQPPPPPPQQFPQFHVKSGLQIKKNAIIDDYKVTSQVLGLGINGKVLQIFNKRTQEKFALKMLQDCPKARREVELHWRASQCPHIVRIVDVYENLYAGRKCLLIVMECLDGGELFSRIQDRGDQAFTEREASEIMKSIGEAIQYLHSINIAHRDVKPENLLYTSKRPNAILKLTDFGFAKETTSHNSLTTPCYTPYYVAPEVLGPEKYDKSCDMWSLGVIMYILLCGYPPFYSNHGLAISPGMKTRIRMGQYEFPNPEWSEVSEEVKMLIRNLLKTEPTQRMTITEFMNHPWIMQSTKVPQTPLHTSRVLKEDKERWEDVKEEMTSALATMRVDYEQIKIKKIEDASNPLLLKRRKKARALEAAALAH
Experimental: [General Procedure for Measurement of MAPKAP-K2 Enzyme Activity Inhibition]
After conducting the reaction for 30 minutes at room temperature, an equivalent volume of a 200 mM phosphoric acid solution was added to suspend the reaction, and 90 μL of the reaction product was adsorbed onto a MultiScreen PH plate (Millipore) and rinsed with a 100 mM phosphoric acid solution. After drying the plate, 30 μL of MicroScint-O (Packard BioScience) was added, and the cpm was measured with a scintillation counter to determine the inhibiting activity. Substrate peptide is […]

CDK-2 = CDK-2 (Homo sapiens, UniProt P24941); test: CDK-2 enzyme activity inhibition (33P-ATP filter plate kinase assay); type: biochemical
From the text: [General Procedure for Measurement of CDK-2 Enzyme Activity Inhibition]

[1] = read-out: CDK-2 inhibition IC50

Compound	activity (efficacy against MAPKAP-K2) (MAPKAP-K2)	IC50 (CDK-2) [µM]	IC50 (CDK-2; [1]) [µM]
N#Cc1cnn2c(Nc3ccc(F)c(Cl)c3)cc(N[C@H]3CC[C@H](N)CC3)nc12 [Compound 1]	++	< 100	–
N[C@H]1CC[C@H](Nc2cc(NCc3ccc(F)c(Cl)c3)n3ncc(Br)c3n2)CC1 [Compound 13]	+	–	< 100
CCc1c(N[C@H]2CC[C@H](N)CC2)nc2ccnn2c1Nc1ccccc1OC [Compound 42]	++	–	< 100
N[C@H]1CC[C@H](Nc2cc(Nc3ccccc3Cl)n3ncc(I)c3n2)CC1 [Compound 47]	++	–	< 100
CCc1c(NC2CCCNC2)nc2ccnn2c1Nc1ccc(Oc2ccc(C)cc2)cc1 (stereo not shown) [Compound 63]	+++	–	< 100
CCOc1ccc(Nc2cc(N[C@H]3CC[C@H](N)CC3)nc3c(C#N)cnn23)cc1 [Compound 64]	+++	–	< 100
CCOC(=O)c1cccc(Nc2c(C)c(N[C@H]3CC[C@H](N)CC3)nc3ccnn23)c1 [Compound 68]	+++	–	< 100
CCOC(=O)c1ccc(Nc2c(CC)c(N[C@H]3CC[C@H](N)CC3)nc3ccnn23)cc1 [Compound 70]	+++	–	< 100
CCc1c(N[C@H]2CC[C@H](N)CC2)nc2ccnn2c1Nc1cccc(C)c1 [Compound 72]	+++	–	< 100
CCc1c(N[C@H]2CC[C@H](N)CC2)nc2ccnn2c1Nc1cccc(OCc2ccccc2)c1 [Compound 74]	++	–	< 100
CCOc1cccc(Nc2c(C)c(N[C@H]3CC[C@H](N)CC3)nc3ccnn23)c1 [Compound 81]	+++	–	< 100
CCCNc1c(C)c(N[C@H]2CC[C@H](N)CC2)nc2ccnn12 [Compound 87]	++	–	< 100
Cc1ccc(Nc2c(C)c(NC3CCCNC3)nc3ccnn23)cc1C (stereo not shown) [Compound 89]	+++	–	< 100
COc1cccc(Nc2c(C)c(N[C@H]3CC[C@H](N)CC3)nc3ccnn23)c1 [Compound 91]	++	–	< 100
Cc1c(NC2CCCNC2)nc2ccnn2c1Nc1ccc(I)cc1 (stereo not shown) [Compound 105]	+++	–	< 100
CCOc1ccc(Nc2c(C(C)C)c(N[C@H]3CC[C@H](N)CC3)nc3ccnn23)cc1 [Compound 114]	+++	–	< 100
CCc1c(N[C@H]2CC[C@H](N)CC2)nc2ccnn2c1Nc1ccc(N2CCCC2=O)cc1 [Compound 125]	++	–	< 100

Compound	activity (efficacy against MAPKAP-K2) (MAPKAP-K2)	IC50 (CDK-2) [µM]	IC50 (CDK-2; [1]) [µM]
Cc1c(N[C@H]2CC[C@H](N)CC2)nc2ccnn2c1Nc1ccc2cn[nH]c2c1 [Compound 131]	+++	–	< 100
CCOC(=O)c1ccc(Nc2c(CC)c(N[C@H]3CC[C@H](N)CC3)nc3ccnn23)cc1Cl [Compound 137]	+++	–	< 100
CCOc1ccc(Nc2c(-c3ccc(OC)cc3)c(N[C@H]3CC[C@H](N)CC3)nc3ccnn23)cc1 [Compound 140]	+++	–	< 100
Cc1c(NC2CCCNC2)nc2ccnn2c1Nc1ccc(F)c(Cl)c1 (stereo not shown) [Compound 152]	++	–	–
Cc1c(NC2CCCNC2)nc2ccnn2c1Nc1ccccc1F (stereo not shown) [Compound 156]	+++	–	< 100
CCc1c(NC2CCCNC2)nc2ccnn2c1Nc1ccc(Br)cc1 (stereo not shown) [Compound 160]	++	–	< 100
N#Cc1cnn2c(Nc3ccccc3Cl)cc(N[C@H]3CC[C@H](N)CC3)nc12 [Compound 170]	+++	–	< 100
COc1c(N[C@H]2CC[C@H](N)CC2)nc2ccnn2c1Nc1ccc(F)c(Cl)c1 [Compound 172]	++	–	< 100
CCOc1ccc(Nc2c(OC)c(NC3CCCNC3)nc3ccnn23)cc1 (stereo not shown) [Compound 173]	+++	–	< 100
Cc1c(N[C@H]2CC[C@H](N)CC2)nc2ccnn2c1Nc1ccc(OCc2ccccc2)cc1 [Compound 176]	+++	–	< 100
Cc1c(N[C@H]2CC[C@H](N)CC2)nc2ccnn2c1Nc1ccc(OC(F)(F)F)cc1 [Compound 179]	+++	–	< 100
Cc1c(NC2CCCNC2)nc2ccnn2c1Nc1ccc(F)c(Cl)c1 (stereo not shown) [Compound 191]	+++	< 100	–
Cc1c(N[C@H]2CC[C@H](N)CC2)nc2ccnn2c1Nc1ccc(O)cc1 [Compound 196]	+++	–	< 100
Cc1c(N[C@H]2CC[C@H](N)CC2)nc2ccnn2c1Nc1ccc(OC(C)C)cc1 [Compound 197, {5-[(trans-4-aminocyclohexyl)amino]-6-methyl(pyrazolo[1,5-a]pyrimidin-7-yl)}[4-(methylethoxy)phenyl]amine]	+++	–	< 100
Cc1c(N[C@H]2CC[C@H](N)CC2)nc2ccnn2c1Nc1ccc(OCCCl)cc1 [Compound 199]	+++	–	< 100
CCCOc1ccc(Nc2c(C)c(N[C@H]3CC[C@H](N)CC3)nc3ccnn23)cc1 [Compound 201]	+++	–	< 100
Cc1c(N[C@H]2CC[C@H](N)CC2)nc2ccnn2c1Nc1ccc(OC2CCCCC2)cc1 [Compound 202]	+++	–	< 100

Continued, values first:

activity (efficacy against MAPKAP-K2) (MAPKAP-K2)	IC50 (CDK-2) [µM]	IC50 (CDK-2; [1]) [µM]	Compound
++	–	–	CCCC1CCNCC1Nc1nc2ccnn2c(Nc2ccc(OCC)cc2)c1C (racemic) [Compound 814, 7-N-(4-Ethoxy-phenyl)-6-methyl-5-N-(4-propyl-piperidin-3-yl)-pyrazolo[1,5-a]pyrimidine-5,7-diamine]
+++	–	< 100	COc1ccc(Nc2c(C)c(N[C@H]3CC[C@H](N)CC3)nc3ccnn23)cc1 [Compound 203]
++	–	< 100	Cc1c(N[C@H]2CC[C@H](N)CC2)nc2ccnn2c1Nc1ccc(OCc2ccc(N)cc2)cc1 [Compound 204]
++	–	–	Cc1c(N[C@H]2CC[C@H](N)CC2)nc2ccnn2c1Nc1cccc(OCCN2CCNCC2)c1 [Compound 259, {5-[(trans-4-aminocyclohexyl)amino]-6-methyl(pyrazolo[1,5-a]pyrimidin-7-yl)}[3-(2-piperazinylethoxy)phenyl]amine]
++	–	–	CCOc1ccc(Nc2c(C)c(NC3CCCCNC3)nc3ccnn23)cc1 (stereo not shown) [Compound 272, [5-(azaperhydroepin-3-ylamino)-6-methyl(pyrazolo[1,5-a]pyrimidin-7-yl)](4-ethoxyphenyl)amine]
–	–	< 100	CCOc1ccc(Nc2c(C)c(NC(CO)C(C)C)nc3ccnn23)cc1 (stereo not shown) [Compound 366]
–	–	< 100	CCOc1ccc(Nc2c(C)c(NC3(CO)CCCC3)nc3ccnn23)cc1 [Compound 368]
–	–	< 100	CCOc1ccc(Nc2c(C)c(NC(C)(C)CO)nc3ccnn23)cc1 [Compound 371]
+++	–	–	Cc1c(N[C@H]2CC[C@H](N)CC2)nc2ccnn2c1Nc1ccc(C#Cc2ccccc2)cc1 [Compound 375, {5-[(trans-4-aminocyclohexyl)amino]-6-methyl(pyrazolo[1,5-a]pyrimidin-7-yl)}[4-(2-phenylethynyl)phenyl]amine]
+	–	–	CCOc1ccc(Nc2c(C)c(N[C@H]3CC[C@H](N)CC3)nc3c(NC(C)=O)cnn23)cc1 [Compound 378, N-{5-[(trans-4-aminocyclohexyl)amino]-7-[(4-ethoxyphenyl)amino]-6-methyl(pyrazolo[1,5-a]pyrimidin-3-yl)}acetamide]
+	–	–	CCOc1ccc(Nc2c(C)c(N[C@H]3CC[C@H](N)CC3)nc3c(NS(C)(=O)=O)cnn23)cc1 [Compound 386, {5-[(trans-4-aminocyclohexyl)amino]-7-[(4-ethoxyphenyl)amino]-6-methyl(pyrazolo[1,5-a]pyrimidin-3-yl)}(methylsulfonyl)amine]
++	–	–	CCOc1ccc(Nc2c(C)c(N[C@H]3CC[C@H](N)CC3)nc3c(NC(=O)Nc4ccccc4)cnn23)cc1 [Compound 389, N-{5-[(trans-4-aminocyclohexyl)amino]-7-[(4-ethoxyphenyl)amino]-6-methyl(pyrazolo[1,5-a]pyrimidin-3-yl)}(phenylamino)carboxamide]
–	–	< 100	CCOc1ccc(Nc2c(C)c(N[C@H]3CC[C@H](N)CC3)nc3c(OC)cnn23)cc1 [Compound 425]
+	–	–	CCOc1ccc(Nc2c(C)c(N[C@H]3CC[C@H](N)CC3)nc3c(NCc4ccccc4)cnn23)cc1 [Compound 436, {5-[(trans-4-aminocyclohexyl)amino]-6-methyl-[3-benzylamino](pyrazolo[1,5-a]pyrimidin-7-yl)}(4-ethoxyphenyl)amine]
+++	–	–	Cc1c(N[C@H]2CC[C@H](N)CC2)nc2ccnn2c1Nc1cccc(-c2cccnc2)c1 [Compound 450, {5-[(trans-4-aminocyclohexyl)amino]-6-methyl(pyrazolo[1,5-a]pyrimidin-7-yl)}(3-(3-pyridyl)phenyl)amine]
+++	–	–	Cc1c(N[C@H]2CC[C@H](N)CC2)nc2ccnn2c1Nc1ccc(C(=O)N2CCCC2)cc1 [Compound 792, 4-({5-[(trans-4-aminocyclohexyl)amino]-6-methyl(pyrazolo[1,5-a]pyrimidin-7-yl)}amino)phenyl pyrrolidinyl ketone]
